Test results as given in patent US20090304746A1 (priority 1993, published 2009).
No end group written: not given here.

Key:
[1] = system: PBMC from HCV-infected patients; test: CTL recall: recognition in vitro by PBMC from HCV-infected patients, 51Cr release; format: cell-based, human
[2] = target: HLA-B*3501 (Homo sapiens, UniProt P01889, A329T/A93T/A95T/C349S/D201E/D98Y/E176V/E187L/E204Q/E69T/I218V/K202T/L119I/Q94N/R155S/R180L/S121R/S35A/S48A/T118I/V127L/V306I/V36M/Y140S/Y91F); test: HLA class I binding assay, B*3501
[3] = target: HLA-B*5301 (Homo sapiens, UniProt P01889, A329T/A93T/A95T/C349S/D201E/D98Y/E176V/E187L/E204Q/E69T/G107R/I218V/K202T/L105A/L119I/N104I/Q94N/R106L/R155S/R180L/S101N/S121R/S35A/S48A/T118I/V127L/V306I/V36M/Y140S/Y91F); test: HLA class I binding assay, B*5301
[4] = target: T1, DRB1*0301 (DR3) (Homo sapiens, UniProt P01903+P01911, A100K/A102G/A103R/A169T/F55Y/I96L/K41T/L162R/M171V/P40S/Q125H/Q178H/Q39Y/R42S/S66N/T106N/T262R/W38E/Y61H); test: HLA class II binding assay, DRB1*0301 (DR3); conditions: DR3 binding affinity, DR3 motif peptides
T1 construct: endogenous in cells; host or cells: MAT

[5] = A3-supertype binders, positive responses over total number examined
[6] = A3-supertype binders, positive responses over total number of contacts examined
[7] = A3-supertype binders, positive responses over total number of patients examined
[8] = A3-supertype binders, sum over all groups, positive over total examined
[9] = sum over the four human data sets

Row | Molecule | Immunogenicity Human, Chisari [1, 5] | Immunogenicity Human, Pape [1, 5] | Immunogenicity Human, Barnaba; contacts [1, 6] | Immunogenicity Human, Barnaba; patients [1, 7] | Immunogenicity Human, overall [1, 8] | Immunogenicity Human, Barnaba; patients ([1]; responders/tested) | Immunogenicity Human, Chisari ([1]; responders/tested) | Immunogenicity Human, Pape ([1]; responders/tested) | Immunogenicity Human, Barnaba; contacts ([1]; responders/tested, contacts) | Immunogenicity Human, overall [1, 9] | IC50 [2] | IC50 [3] | IC50 [4]
1 | CC[C@H](C)[C@H](NC(=O)[C@@H](N)CC(C)C)C(=O)N[C@@H](Cc1ccccc1)C(=O)N[C@@H](CS)C(=O)N[C@@H](Cc1c[nH]cn1)C(=O)N[C@@H](CO)C(=O)N[C@@H](CCCCN)C(=O)N[C@@H](CCCCN)C(=O)N[C@@H](CCCCN)C(=O)O [Peptide 1.0123] | 4/12 | 2/6 | 1/4 | 6/16 | 13/38 | 6/16 | 4/12 | 2/6 | 1/4 | 13/38 | – | – | –
2 | CC[C@H](C)[C@H](N)C(=O)N1CCC[C@H]1C(=O)N[C@@H](Cc1ccccc1)C(=O)N[C@@H](Cc1ccc(O)cc1)C(=O)NCC(=O)N[C@@H](CCCCN)C(=O)N[C@@H](C)C(=O)N[C@H](C(=O)O)[C@@H](C)CC [29.0035/1260.04] | – | – | – | – | – | – | – | – | – | – | > 30 µM | > 30 µM | –
3 | CSCC[C@H](NC(=O)[C@H](CC(C)C)NC(=O)[C@H](C)NC(=O)[C@H](CC(=O)O)NC(=O)[C@@H](NC(=O)[C@H](C)NC(=O)[C@@H](NC(=O)[C@@H](NC(=O)[C@@H](NC(=O)[C@@H](N)C(C)C)C(C)C)C(C)C)C(C)C)[C@@H](C)O)C(=O)N[C@H](C(=O)NCC(=O)N[C@@H](Cc1ccc(O)cc1)C(=O)N[C@H](C(=O)NCC(=O)O)[C@@H](C)O)[C@@H](C)O [CH35.0106] | – | – | – | – | – | – | – | – | – | – | – | – | ≤ 1 µM
4 | CC[C@H](C)[C@H](NC(=O)[C@H](Cc1ccc(O)cc1)NC(=O)[C@@H]1CCCN1C(=O)[C@@H](N)CC(C)C)C(=O)N[C@@H](CCC(=O)O)C(=O)N[C@@H](CCC(N)=O)C(=O)NCC(=O)N[C@@H](CCSC)C(=O)O [Peptide 29.0042] | – | – | – | – | – | – | – | – | – | – | > 30 µM | > 30 µM | –
5 | CSCC[C@H](NC(=O)[C@H](CCCNC(=N)N)NC(=O)[C@H](C)NC(=O)[C@H](Cc1c[nH]c2ccccc12)NC(=O)[C@H](CC(C)C)NC(=O)[C@@H](NC(=O)[C@@H]1CCCN1C(=O)[C@H](C)N)[C@@H](C)O)C(=O)O [Peptide 29.0031] | – | – | – | – | – | – | – | – | – | – | > 30 µM | > 30 µM | –
6 | CC(C)C[C@H](NC(=O)[C@@H](N)CCC(N)=O)C(=O)N[C@@H](Cc1ccccc1)C(=O)N[C@H](C(=O)N[C@@H](Cc1ccccc1)C(=O)N[C@@H](CO)C(=O)N1CCC[C@H]1C(=O)N[C@@H](CCCNC(=N)N)C(=O)N[C@@H](CCCNC(=N)N)C(=O)O)[C@@H](C)O [Peptide 1.0955] | 6/12 | 1/6 | 0/4 | 1/16 | 8/38 | 1/16 | 6/12 | 1/6 | 0/4 | 8/38 | – | – | –
7 | CC[C@H](C)[C@H](NC(=O)[C@H](CCSC)NC(=O)[C@H](CCCNC(=N)N)NC(=O)[C@H](C)NC(=O)[C@H](Cc1c[nH]c2ccccc12)NC(=O)[C@H](CC(C)C)NC(=O)[C@@H](NC(=O)[C@@H]1CCCN1C(=O)[C@H](C)N)[C@@H](C)O)C(=O)N[C@@H](CC(C)C)C(=O)N[C@@H](CCSC)C(=O)O [Peptide 29.0118] | – | – | – | – | – | – | – | – | – | – | > 30 µM | > 30 µM | –
8 | CC(C)C[C@H](NC(=O)[C@H](C)NC(=O)CNC(=O)[C@H](C)NC(=O)[C@@H](N)C(C)C)C(=O)N[C@H](C(=O)N[C@@H](C)C(=O)N[C@@H](Cc1ccccc1)C(=O)N[C@@H](CCCCN)C(=O)O)C(C)C [Peptide 24.0090] | 6/12 | 0/4 | 1/4 | 4/16 | 11/38 | 4/16 | 6/12 | 0/4 | 1/4 | 11/38 | – | – | –
9 | CC(C)C[C@H](NC(=O)[C@H](C)NC(=O)CNC(=O)[C@H](C)NC(=O)[C@@H](NC(=O)CN)C(C)C)C(=O)N[C@H](C(=O)N[C@@H](C)C(=O)N[C@@H](Cc1ccccc1)C(=O)N[C@@H](CCCCN)C(=O)O)C(C)C [Peptide 1073.10] | 6/12 | 2/6 | 0/4 | 3/16 | 11/38 | 3/16 | 6/12 | 2/6 | 0/4 | 11/38 | – | – | –
10 | C[C@@H](O)[C@H](NC(=O)[C@@H](N)CCCCN)C(=O)N[C@@H](CO)C(=O)N[C@@H](CCC(=O)O)C(=O)N[C@@H](CCCNC(=N)N)C(=O)N[C@@H](CO)C(=O)N[C@@H](CCC(N)=O)C(=O)N1CCC[C@H]1C(=O)N[C@@H](CCCNC(=N)N)C(=O)O [Peptide 1.0952] | 3/12 | 0/6 | 1/4 | 2/16 | 6/38 | 2/16 | 3/12 | 0/6 | 1/4 | 6/38 | – | – | –
11 | CSCC[C@H](NC(=O)[C@@H](N)CCCNC(=N)N)C(=O)N[C@@H](Cc1ccc(O)cc1)C(=O)N[C@H](C(=O)NCC(=O)NCC(=O)N[C@H](C(=O)N[C@@H](CCC(=O)O)C(=O)N[C@@H](Cc1c[nH]cn1)C(=O)N[C@@H](CCCNC(=N)N)C(=O)O)C(C)C)C(C)C [Peptide 1073.13] | 4/12 | 1/6 | 1/4 | 5/16 | 11/38 | 5/16 | 4/12 | 1/6 | 1/4 | 11/38 | – | – | –
12 | CC(C)C[C@H](NC(=O)[C@@H](N)CCCNC(=N)N)C(=O)NCC(=O)N[C@H](C(=O)N[C@@H](CCCNC(=N)N)C(=O)N[C@@H](C)C(=O)N[C@H](C(=O)N[C@@H](CCCNC(=N)N)C(=O)N[C@@H](CCCCN)C(=O)O)[C@@H](C)O)C(C)C [Peptide 1073.11] | 7/12 | 1/6 | 1/4 | 4/16 | 13/38 | 4/16 | 7/12 | 1/6 | 1/4 | 13/38 | – | – | –
13 | FPGCSFSIF [Peptide 1145.13] | – | – | – | – | – | – | – | – | – | – | – | 0.0032 µM | –
14 | CC[C@H](C)[C@H](NC(=O)[C@H](CC(C)C)NC(=O)[C@H](CCCNC(=N)N)NC(=O)[C@H](C)NC(=O)[C@@H]1CCCN1C(=O)[C@@H](N)CCCCN)C(=O)N[C@H](C(=O)N[C@@H](Cc1ccccc1)C(=O)O)C(C)C [Peptide 29.0037] | – | – | – | – | – | – | – | – | – | – | > 30 µM | > 30 µM | –
15 | CC(C)C[C@H](NC(=O)[C@H](CCCNC(=N)N)NC(=O)[C@@H]1CCCN1C(=O)CNC(=O)[C@H](CCCNC(=N)N)NC(=O)[C@H](CCCNC(=N)N)NC(=O)[C@@H]1CCCN1C(=O)[C@@H](N)CC(C)C)C(=O)O [Peptide 29.0040] | – | – | – | – | – | – | – | – | – | – | > 30 µM | > 30 µM | –
